Laboratory results reported in US20220081412A1, “QUINOLINYL-PYRAZINE-CARBOXAMIDE COMPOUNDS AND USES THEREOF” (The Regents of the University of Michigan, priority 2018, published 2022).

Tested on: NCI60 cell lines
Assay: NCI60 cell line panel
Assay type: cell-based, human
Method: The Developmental Therapeutics Program (DTP) of NCI has evaluated more than 100,000 pure compounds and more than 34,000 crude extracts against the panel of human tumor cell lines. The resultant data are analyzed using a program called COMPARE, that rank the entire database of tested compounds in the order of the similarity of the responses. […] Thus, the NCI60 databases is highly useful to the cancer research community. Further experiments were conducted that tested some of the active compounds in a panel of NCI60 cell line to relate our compounds with some known inhibitors to have an idea of possible mechanism of action.
In order to understand the selectivity of these compounds in different cancer types, some of them were tested against a panel of 60 cell lines (Table XXXIX).

## CCN(CC)CCCC(C)Nc1cnc(C(=O)Nc2cc(F)cc3cccnc23)cn1 (centres unmarked) [J17, 5-((5-(diethylamino)pentan-2-yl)amino)-N-(6-fluoroquinolin-8-yl)pyrazine-2-carboxamide]
Breast Cancer, BT-549
  GIPRCNT: % Growth inhibition: 77.38%
Breast Cancer, HS 578T
  GIPRCNT: % Growth inhibition: 69.28%
Breast Cancer, MCF7
  GIPRCNT: % Growth inhibition: 2.311%
Breast Cancer, MDA-MB-231/ATCC
  GIPRCNT: % Growth inhibition: 59.42%
Breast Cancer, MDA-MB-468
  GIPRCNT: % Growth inhibition: 6.238%
Breast Cancer, T-47D
  GIPRCNT: % Growth inhibition: 14.34%
CNS Cancer, SF-268
  GIPRCNT: % Growth inhibition: 51.93%
CNS Cancer, SF-295
  GIPRCNT: % Growth inhibition: 71.23%
CNS Cancer, SF-539
  GIPRCNT: % Growth inhibition: 83.12%
CNS Cancer, SNB-19
  GIPRCNT: % Growth inhibition: 83.09%
CNS Cancer, SNB-75
  GIPRCNT: % Growth inhibition: 65.6595%
CNS Cancer, U251
  GIPRCNT: % Growth inhibition: 50.2764%
Colon Cancer, COLO 205
  GIPRCNT: % Growth inhibition: 3.108%
Colon Cancer, HCC-2998
  GIPRCNT: % Growth inhibition: 66.69%
Colon Cancer, HCT-15
  GIPRCNT: % Growth inhibition: 24.5%
Colon Cancer, HCT-116
  GIPRCNT: % Growth inhibition: 9.52%
Colon Cancer, HT29
  GIPRCNT: % Growth inhibition: 11.8%
Colon Cancer, KM12
  GIPRCNT: % Growth inhibition: 75.34%
Colon Cancer, SW-620
  GIPRCNT: % Growth inhibition: 24.3%
Leukemia, CCRF-CEM
  GIPRCNT: % Growth inhibition: 19.66%
Leukemia, HL-60(TB)
  GIPRCNT: % Growth inhibition: 85.54%
Leukemia, K-562
  GIPRCNT: % Growth inhibition: 3.946%
Leukemia, MOLT-4
  GIPRCNT: % Growth inhibition: 21.9615%
Leukemia, RPMI-8226
  GIPRCNT: % Growth inhibition: 75.09%
Leukemia, SR
  GIPRCNT: % Growth inhibition: 2.839%
Melanoma, LOX IMVI
  GIPRCNT: % Growth inhibition: 33.27%
Melanoma, M14
  GIPRCNT: % Growth inhibition: 21.9%
Melanoma, MALME-3M
  GIPRCNT: % Growth inhibition: −8.343%
Melanoma, MDA-MB-435
  GIPRCNT: % Growth inhibition: 25.54%
Melanoma, SK-MEL-2
  GIPRCNT: % Growth inhibition: 96.72%
Melanoma, SK-MEL-5
  GIPRCNT: % Growth inhibition: 69.98%
Melanoma, UACC-62
  GIPRCNT: % Growth inhibition: 0.9972%
Melanoma, UACC-257
  GIPRCNT: % Growth inhibition: 76.77%
Non-Small Cell Lung Cancer, A549/ATCC
  GIPRCNT: % Growth inhibition: 58.01%
Non-Small Cell Lung Cancer, EKVX
  GIPRCNT: % Growth inhibition: 73.3%
Non-Small Cell Lung Cancer, HOP-62
  GIPRCNT: % Growth inhibition: 64.08%
Non-Small Cell Lung Cancer, HOP-92
  GIPRCNT: % Growth inhibition: 37.52%
Non-Small Cell Lung Cancer, NCI-H23
  GIPRCNT: % Growth inhibition: 81.37%
Non-Small Cell Lung Cancer, NCI-H226
  GIPRCNT: % Growth inhibition: 85.09%
Non-Small Cell Lung Cancer, NCI-H322M
  GIPRCNT: % Growth inhibition: 63.8%
Non-Small Cell Lung Cancer, NCI-H460
  GIPRCNT: % Growth inhibition: 69.55%
Non-Small Cell Lung Cancer, NCI-H522
  GIPRCNT: % Growth inhibition: 52.69%
Ovarian Cancer, IGROV1
  GIPRCNT: % Growth inhibition: 41.74%
Ovarian Cancer, NCI/ADR-RES
  GIPRCNT: % Growth inhibition: 66.76%
Ovarian Cancer, OVCAR-3
  GIPRCNT: % Growth inhibition: 5.413%
Ovarian Cancer, OVCAR-4
  GIPRCNT: % Growth inhibition: 12.24%
Ovarian Cancer, OVCAR-5
  GIPRCNT: % Growth inhibition: 77.12%
Ovarian Cancer, OVCAR-8
  GIPRCNT: % Growth inhibition: 60.52%
Ovarian Cancer, SK-OV-3
  GIPRCNT: % Growth inhibition: 98.32%
Prostate Cancer, DU-145
  GIPRCNT: % Growth inhibition: 63.3%
Prostate Cancer, PC-3
  GIPRCNT: % Growth inhibition: 60.96%
Renal Cancer, 786-0
  GIPRCNT: % Growth inhibition: 68.3555%
Renal Cancer, A498
  GIPRCNT: % Growth inhibition: 62.97%
Renal Cancer, ACHN
  GIPRCNT: % Growth inhibition: 36.59%
Renal Cancer, CAKI-1
  GIPRCNT: % Growth inhibition: 36.66%
Renal Cancer, RXF 393
  GIPRCNT: % Growth inhibition: 33.77%
Renal Cancer, SN12C
  GIPRCNT: % Growth inhibition: 54.47%
Renal Cancer, TK-10
  GIPRCNT: % Growth inhibition: 63.68%
Renal Cancer, UO-31
  GIPRCNT: % Growth inhibition: 29.1%
